Activity calls are given as the source filed them. No cut-off for these calls is given here. Some results are limits rather than exact numbers.

Assay [1] addresses Genome polyprotein (Coxsackievirus B3 (strain Nancy)) (UniProt P03313). The assay is described as follows: Inhibition of human coxsackievirus B3 protease 3C expressed in Escherichia coli (BL21) at 40 uM using fluorogenic-Dabcyl-KEALFQGPPQFE-Edans as substrate after 1 hr by FRET assay.
Assay [2] concerns the target Genome polyprotein (Coxsackievirus B3 (strain Nancy), UniProt P03313). The assay can be described thus: Inhibition of human coxsackievirus B3 protease 3C expressed in Escherichia coli (BL21) using fluorogenic-Dabcyl-KEALFQGPPQFE-Edans as substrate after 1 hr by FRET assay.
Assay [3] addresses Genome polyprotein (rhinovirus B14, UniProt P03303). The assay is described as follows: Inhibition of recombinant human rhinovirus protease 3C using fluorogenic-Dabcyl-KTSAVLQSGFRKME-Edan as substrate after 5 mins by FRET assay. Set-up: species or system Human rhinovirus sp.
The target in assay [4] is Genome polyprotein (rhinovirus B14) (UniProt P03303). The assay can be described thus: Inhibition of human rhinovirus protease 3C catalytic activity assessed as suppression of target protein cleavage at 50 uM after 30 mins by SDS-PAGE analysis. The settings on record: Human rhinovirus sp.
Genome polyprotein (rhinovirus B14), sequence (P03303 whole entry): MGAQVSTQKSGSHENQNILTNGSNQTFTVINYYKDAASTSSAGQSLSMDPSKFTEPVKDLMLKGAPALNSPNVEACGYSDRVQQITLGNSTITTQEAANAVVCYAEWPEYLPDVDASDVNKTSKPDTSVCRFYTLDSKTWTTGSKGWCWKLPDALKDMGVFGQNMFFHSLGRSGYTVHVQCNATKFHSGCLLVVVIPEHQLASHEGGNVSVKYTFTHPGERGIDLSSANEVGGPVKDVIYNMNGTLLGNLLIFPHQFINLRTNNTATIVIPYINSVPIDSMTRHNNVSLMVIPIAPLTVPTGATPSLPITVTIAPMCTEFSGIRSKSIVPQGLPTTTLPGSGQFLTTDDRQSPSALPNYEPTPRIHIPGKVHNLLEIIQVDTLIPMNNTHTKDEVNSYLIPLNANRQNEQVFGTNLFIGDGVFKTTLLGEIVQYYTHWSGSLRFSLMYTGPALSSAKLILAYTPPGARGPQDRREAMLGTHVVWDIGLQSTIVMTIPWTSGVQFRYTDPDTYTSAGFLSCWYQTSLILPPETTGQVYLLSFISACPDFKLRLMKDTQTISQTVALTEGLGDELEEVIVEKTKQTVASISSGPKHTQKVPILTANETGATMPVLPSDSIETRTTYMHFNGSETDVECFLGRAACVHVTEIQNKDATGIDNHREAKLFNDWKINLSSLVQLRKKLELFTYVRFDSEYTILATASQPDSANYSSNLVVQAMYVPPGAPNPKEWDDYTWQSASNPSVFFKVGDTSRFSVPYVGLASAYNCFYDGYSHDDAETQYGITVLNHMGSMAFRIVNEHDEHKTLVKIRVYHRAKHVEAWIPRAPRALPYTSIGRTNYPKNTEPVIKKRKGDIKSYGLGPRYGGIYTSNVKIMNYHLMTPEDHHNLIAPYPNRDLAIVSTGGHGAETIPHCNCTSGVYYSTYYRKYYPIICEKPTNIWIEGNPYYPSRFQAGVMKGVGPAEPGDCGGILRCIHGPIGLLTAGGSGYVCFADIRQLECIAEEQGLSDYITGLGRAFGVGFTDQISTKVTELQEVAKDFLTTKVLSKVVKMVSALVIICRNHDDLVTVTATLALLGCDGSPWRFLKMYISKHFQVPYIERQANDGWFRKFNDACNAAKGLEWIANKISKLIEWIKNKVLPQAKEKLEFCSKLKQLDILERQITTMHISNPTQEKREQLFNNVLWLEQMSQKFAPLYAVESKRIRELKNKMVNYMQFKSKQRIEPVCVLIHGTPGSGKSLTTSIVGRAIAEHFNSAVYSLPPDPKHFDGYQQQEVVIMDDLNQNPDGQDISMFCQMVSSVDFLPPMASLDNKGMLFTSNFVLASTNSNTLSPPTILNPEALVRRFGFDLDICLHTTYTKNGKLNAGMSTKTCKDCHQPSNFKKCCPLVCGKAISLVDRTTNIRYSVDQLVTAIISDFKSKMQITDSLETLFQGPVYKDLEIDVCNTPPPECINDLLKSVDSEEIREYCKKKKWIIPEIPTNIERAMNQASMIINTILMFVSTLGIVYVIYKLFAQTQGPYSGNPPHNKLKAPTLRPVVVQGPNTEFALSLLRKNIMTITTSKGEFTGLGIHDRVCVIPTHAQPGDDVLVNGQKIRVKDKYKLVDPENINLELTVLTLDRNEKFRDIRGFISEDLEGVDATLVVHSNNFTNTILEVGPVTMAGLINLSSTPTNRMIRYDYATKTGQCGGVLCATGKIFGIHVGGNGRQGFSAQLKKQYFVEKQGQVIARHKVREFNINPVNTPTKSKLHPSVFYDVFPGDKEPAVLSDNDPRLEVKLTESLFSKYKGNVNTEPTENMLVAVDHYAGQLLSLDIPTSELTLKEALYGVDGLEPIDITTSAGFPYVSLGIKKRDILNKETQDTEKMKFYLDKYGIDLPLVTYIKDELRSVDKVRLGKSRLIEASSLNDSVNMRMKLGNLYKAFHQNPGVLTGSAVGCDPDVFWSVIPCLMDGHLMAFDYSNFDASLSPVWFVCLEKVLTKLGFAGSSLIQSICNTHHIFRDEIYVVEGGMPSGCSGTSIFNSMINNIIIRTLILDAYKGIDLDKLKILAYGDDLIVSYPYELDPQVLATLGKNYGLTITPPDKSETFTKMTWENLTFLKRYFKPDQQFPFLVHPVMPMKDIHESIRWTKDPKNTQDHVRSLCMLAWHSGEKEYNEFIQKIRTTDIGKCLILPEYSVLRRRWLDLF
Assay [5] shares this target. The assay is described as follows: Inhibition of human rhinovirus protease 3C catalytic activity assessed as suppression of target protein cleavage at 5 uM after 30 mins by SDS-PAGE analysis. The note with it: Human rhinovirus sp.

Genome polyprotein (Coxsackievirus B3 (strain Nancy)), sequence (P03313 whole entry): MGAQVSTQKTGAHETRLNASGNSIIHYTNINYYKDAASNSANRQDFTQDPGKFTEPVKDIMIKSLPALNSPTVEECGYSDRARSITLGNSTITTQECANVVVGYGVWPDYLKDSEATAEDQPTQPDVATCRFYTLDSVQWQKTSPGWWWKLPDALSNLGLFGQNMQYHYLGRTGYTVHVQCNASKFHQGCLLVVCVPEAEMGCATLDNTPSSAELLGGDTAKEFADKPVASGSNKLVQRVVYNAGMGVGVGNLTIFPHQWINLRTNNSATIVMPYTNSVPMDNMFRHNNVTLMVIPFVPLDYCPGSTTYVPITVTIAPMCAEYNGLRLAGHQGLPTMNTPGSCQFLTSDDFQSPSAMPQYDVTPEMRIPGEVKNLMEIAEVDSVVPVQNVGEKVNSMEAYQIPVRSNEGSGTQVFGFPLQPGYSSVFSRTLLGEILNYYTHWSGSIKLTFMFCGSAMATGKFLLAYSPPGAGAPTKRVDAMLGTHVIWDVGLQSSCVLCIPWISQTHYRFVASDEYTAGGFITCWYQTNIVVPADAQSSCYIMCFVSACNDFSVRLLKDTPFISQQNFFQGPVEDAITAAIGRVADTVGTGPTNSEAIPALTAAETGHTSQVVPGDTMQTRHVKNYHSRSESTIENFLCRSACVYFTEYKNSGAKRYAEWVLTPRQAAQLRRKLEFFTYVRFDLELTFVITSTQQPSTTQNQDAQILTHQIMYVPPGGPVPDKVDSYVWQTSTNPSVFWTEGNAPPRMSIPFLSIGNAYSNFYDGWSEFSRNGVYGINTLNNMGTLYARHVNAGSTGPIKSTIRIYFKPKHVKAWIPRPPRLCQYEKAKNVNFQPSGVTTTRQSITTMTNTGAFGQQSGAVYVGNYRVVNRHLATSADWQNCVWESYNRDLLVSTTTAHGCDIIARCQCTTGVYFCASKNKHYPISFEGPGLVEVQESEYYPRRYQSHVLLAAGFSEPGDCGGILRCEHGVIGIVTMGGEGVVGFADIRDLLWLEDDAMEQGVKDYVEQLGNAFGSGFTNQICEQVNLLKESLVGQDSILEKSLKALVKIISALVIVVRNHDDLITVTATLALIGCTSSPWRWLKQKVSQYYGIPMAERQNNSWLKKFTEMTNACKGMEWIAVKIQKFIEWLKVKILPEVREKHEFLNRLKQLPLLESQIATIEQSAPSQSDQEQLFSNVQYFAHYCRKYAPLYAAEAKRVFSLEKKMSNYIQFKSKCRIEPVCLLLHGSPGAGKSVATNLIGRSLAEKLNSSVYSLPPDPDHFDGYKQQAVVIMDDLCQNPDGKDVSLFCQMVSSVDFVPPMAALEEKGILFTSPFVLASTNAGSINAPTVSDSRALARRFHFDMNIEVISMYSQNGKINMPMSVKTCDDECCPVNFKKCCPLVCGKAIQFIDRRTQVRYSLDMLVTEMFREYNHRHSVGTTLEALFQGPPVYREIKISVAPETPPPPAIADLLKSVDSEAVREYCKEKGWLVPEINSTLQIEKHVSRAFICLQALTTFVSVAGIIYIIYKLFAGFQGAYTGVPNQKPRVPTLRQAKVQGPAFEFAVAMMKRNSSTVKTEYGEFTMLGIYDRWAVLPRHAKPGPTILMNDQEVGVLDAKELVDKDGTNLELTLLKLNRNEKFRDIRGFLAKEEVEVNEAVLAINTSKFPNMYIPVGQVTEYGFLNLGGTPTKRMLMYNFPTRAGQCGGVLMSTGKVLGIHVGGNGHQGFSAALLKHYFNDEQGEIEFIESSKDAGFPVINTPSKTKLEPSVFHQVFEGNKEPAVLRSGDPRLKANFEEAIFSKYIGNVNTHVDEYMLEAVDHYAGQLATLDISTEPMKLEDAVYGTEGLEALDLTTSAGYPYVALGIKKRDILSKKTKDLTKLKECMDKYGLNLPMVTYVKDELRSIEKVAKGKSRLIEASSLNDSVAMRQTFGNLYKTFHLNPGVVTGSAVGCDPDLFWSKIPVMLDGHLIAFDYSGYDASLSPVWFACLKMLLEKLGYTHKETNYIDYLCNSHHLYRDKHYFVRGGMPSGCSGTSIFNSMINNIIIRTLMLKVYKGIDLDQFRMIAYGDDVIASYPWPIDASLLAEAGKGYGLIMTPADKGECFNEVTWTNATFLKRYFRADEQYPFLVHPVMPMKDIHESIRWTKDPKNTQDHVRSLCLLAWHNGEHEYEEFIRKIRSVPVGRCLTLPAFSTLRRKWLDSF
Genome polyprotein (Coxsackievirus B3 (strain Nancy), UniProt P03313), sequence (P03313 1541-1723 limits assumed): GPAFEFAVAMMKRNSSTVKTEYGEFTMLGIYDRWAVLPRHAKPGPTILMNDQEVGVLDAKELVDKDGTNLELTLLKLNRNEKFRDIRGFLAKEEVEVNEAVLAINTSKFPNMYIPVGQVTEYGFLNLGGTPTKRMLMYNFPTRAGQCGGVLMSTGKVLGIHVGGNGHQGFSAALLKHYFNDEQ
Genome polyprotein (rhinovirus B14, UniProt P03303), sequence (P03303 1538-1719 limits assumed): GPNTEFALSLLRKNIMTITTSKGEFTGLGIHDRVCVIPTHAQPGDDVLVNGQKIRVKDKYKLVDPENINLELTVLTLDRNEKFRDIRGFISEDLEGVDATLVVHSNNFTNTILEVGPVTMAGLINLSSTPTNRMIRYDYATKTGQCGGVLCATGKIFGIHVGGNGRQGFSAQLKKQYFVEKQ

As to `O=C(CCN1CCc2ccccc2CC1)c1ccc2c(c1)OCCO2`, in assay [1], the inhibition is more than 64%. Further, the midpoint of inhibition on Genome polyprotein [2], the IC50, lay at 11100 nM. Take `O=C1C(Sc2ccccc2)=C(Sc2ccccc2)C(=O)c2[nH]c(-c3ccncc3)nc21`: inhibition at Genome polyprotein [2] was half-maximal at 790 nM (IC50). Still for that read-out and setting: the figure for `Cc1nc2c([nH]1)C(=O)C(Nc1ccc(C(F)(F)F)cc1)=C(Cl)C2=O` is 840 nM. Turning to `COC(=O)/C=C/C(=O)[C@@H](NC(=O)OC(C)(C)C)C(C)C`, in assay [1], the inhibition is more than 64%. For the same compound, at Genome polyprotein [2], the IC50 was determined as 1800 nM.

As to `Cc1[nH]c2ccccc2c1C1=C(O)C(=O)c2ncccc2C1=O`, the IC50 against Genome polyprotein [2] is 1100 nM. Turning to `Cc1nc2c([nH]1)C(=O)C(Cl)=C(Nc1cc(F)cc(F)c1)C2=O`, the IC50 on Genome polyprotein [3] was found to be 8.4 µM; against Genome polyprotein [2], 900 nM. The same compound came in with an inhibition in assay [1] of more than 64%. For the same compound, the inhibition result in assay [4] is “Active”. For the compound `COc1ccc(OC2=C(Cl)C(=O)c3ccccc3C2=O)c([N+](=O)[O-])c1`, the half-maximal inhibitory concentration (IC50) on Genome polyprotein [3] was 0.85 µM; on Genome polyprotein [2], 1700 nM. For the same compound, in assay [1], the inhibition is more than 64%. For the same compound, the inhibition entry in assay [5] is “Active”. Take `O=C1C(Sc2ccc(Cl)cc2)=C(Sc2ccc(Cl)cc2)C(=O)c2[nH]c(-c3ccncc3)nc21`: half-maximal inhibition at Genome polyprotein [2] (IC50) required 570 nM. In assay [1], `Cc1ccc(N/N=C/c2c(O)cc(C)oc2=O)cc1` yielded an inhibition of more than 64%. At Genome polyprotein [2], it took 5400 nM to reach half-maximal inhibition (IC50). Take `O=C1C(Oc2ccc(O)cc2)=C(Oc2ccc(O)cc2)C(=O)c2ncccc21`: it took 1200 nM to reach half-maximal inhibition at Genome polyprotein [2] (IC50). In turn, `CN(Cc1ccccc1)CC(C(=O)c1ccc(Cl)cc1)n1cnc2ccccc2c1=O` (centres undefined) returned an inhibition in assay [1] of more than 64%. On Genome polyprotein [2], this compound gave an IC50 of 6200 nM. The like results for `CC1(C)CC(=O)C2=C(C1)OC(=O)C2(Nc1ccccc1)C(F)(F)F` (centres undefined) were, in that order, more than 64% and 8300 nM. In turn, `O=C1C(Cl)=C(Cl)C(=O)c2ncccc21` displayed a half-maximal inhibitory concentration (IC50) against Genome polyprotein [2] of 630 nM.

`O=C1C(Cl)=C(Nc2cccc(Cl)c2)C(=O)c2[nH]c(-c3ccncc3)nc21` came in with an IC50 at Genome polyprotein [2] of 550 nM. `O=C1C=CC(=O)N1c1ccc(OC(F)(F)C(F)F)c(N2C(=O)C=CC2=O)c1` gave an inhibition in assay [1] of more than 64%. The IC50 against Genome polyprotein [2] was 1200 nM. The compound `Cc1[nH]c2ccccc2c1C1=C(Cl)C(=O)c2ncccc2C1=O` registered an IC50 against Genome polyprotein [2] of 730 nM. Same read-out and setting: the figure for `Cc1ccc(NC2=C(Cl)C(=O)c3nc(C)[nH]c3C2=O)cc1` is 830 nM.

Source of the values: ChEMBL document CHEMBL4219266, “Identification of quinone analogues as potential inhibitors of picornavirus 3C protease in vitro” (Bioorg Med Chem Lett, 2018).
